Measured values: PubChem BioAssay (NCI)
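Interpolation was linear, between the two tested concentrations surrounding the appropriate level; five concentrations were tested over 48 hours in 96-well plates. GI50 is the concentration that inhibits growth by half. TGI denotes the concentration required for complete inhibition of growth.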

Legend:
Assay in all cases: NCI anticancer screen, dose series, 48 h
T-47D breast = test system: T-47D breast
TK-10 renal = test system: TK-10 renal
UO-31 renal = test system: UO-31 renal
RPMI-8226 leukemia = test system: RPMI-8226 leukemia
OVCAR-3 ovarian = test system: OVCAR-3 ovarian
CAKI-1 renal = test system: CAKI-1 renal
SF-539 CNS = test system: SF-539 CNS
K-562 leukemia = test system: K-562 leukemia

SMILES	TGI (T-47D breast) [µM]	TGI (TK-10 renal) [µM]	TGI (UO-31 renal) [µM]	TGI (RPMI-8226 leukemia) [µM]	TGI (OVCAR-3 ovarian) [µM]	TGI (CAKI-1 renal) [µM]	TGI (SF-539 CNS) [µM]	TGI (K-562 leukemia) [µM]	GI50 (T-47D breast) [µM]	GI50 (TK-10 renal) [µM]	GI50 (UO-31 renal) [µM]	GI50 (RPMI-8226 leukemia) [µM]	GI50 (OVCAR-3 ovarian) [µM]	GI50 (CAKI-1 renal) [µM]	GI50 (SF-539 CNS) [µM]	GI50 (K-562 leukemia) [µM]
Cc1cc(C(O)CNC(C)CCn2cnc3c2c(=O)n(C)c(=O)n3C)ccc1O (centres undefined)	> 100	> 100	> 100	> 100	> 100	> 100	> 100	> 100								
Cc1ccc(S(=O)(=O)Nc2cc(Sc3ccccc3)c(O)c3ccccc23)cc1	5.99	31.7	10.9	22.8	8.24	9.19	9.51	10.7	2.25	17.5	2.88	3.4	2.85	3.16	3.19	3.38
O=c1c(Sc2ncccn2)c(Sc2ncccn2)cnn1CCl	14.2	11.4	3.45	> 20.6	10.8	5.89	4	20.5								
O=C(Nc1ccc(S(=O)(=O)Nc2ncccn2)cc1)c1c2ccccc2nc2ccccc12		> 100	> 100	> 100	> 100	> 100	> 100	> 100								
Cc1ncc(CO)c(C=NCCCCCCN=Cc2c(CO)cnc(C)c2O)c1O	> 100	> 100	> 100	> 100	> 100	> 100	> 100	> 100								
COC(=O)CCC(C)[C@H]1CCC2C3C(C[C@H](OC(C)=O)[C@@]21C)[C@@]1(C)CCC2(C[C@H]1C[C@H]3OC(C)=O)OOC1(CCCCC1)OO2 (some centres undefined)	> 100	> 100	25.7	6.43	> 100	> 100	> 100	> 100								
CC(=O)C1C(=O)C(=O)N(c2ccc(Br)cc2)C1=O (centres undefined)		> 100	> 100		> 100	> 100	> 100									
CC[C@H](C)[C@H]1NC(=O)[C@@H](NC(=O)[C@@H](CC(C)C)N(C)C(=O)C2CCCN2C(=O)[C@H](C)O)[C@@H](C)OC(=O)[C@H](Cc2ccccc2)N(C)C(=O)[C@@H]2CCCN2C(=O)[C@H](CC(C)C)NC(=O)[C@@H](C)C(=O)[C@H](C(C)C)OC(=O)C[C@@H]1O (some centres undefined)		0.00848	< 0.00625		0.0113			> 62.5								
Cc1cn2c(/C=C3/C(=O)Nc4ccccc43)c(C)nc2s1	38.5	> 100	61.4	21		> 100	7.83	17.2								
Cc1ccc(-n2cc(-c3ccc(Cl)cc3)c3c2N=CN2NC(c4cccs4)=NC32)cc1 (centres undefined)		27.9	27.7		35	40.4	45.2	> 100								
CC(C)(C)N=c1n(C(C)(C)C)oc(=O)n1-c1ccccc1		> 50	> 50	> 50	> 50	> 50	> 50	> 50								
CC1=C(C(=O)NC(C)(C)C)CC(C(=O)NC(C)(C)C)C(C)N1 (centres undefined)	> 100	> 100	> 100	> 100	> 100	> 100	> 100	> 100								
O=C(O)CCc1nc2cc3ccccc3cc2[nH]c1=O	> 100	> 100	> 100		> 100	> 100	> 100	> 100								
COc1ccccc1Cn1[nH]c(=O)c2cc([N+](=O)[O-])ccc21		> 100	> 100	> 100	83	> 100	> 100	> 100								
COC(=O)CCC1(O)C=CC(=O)C=C1		> 100	> 100	> 100	59.5	33.1	76.4	> 100								
CN(C)C(=O)Oc1ccc(C(=S)Nc2ccccc2)cc1Br	80.9		> 100	73.9	> 100	> 100	> 100	> 100								
CSc1nc(-c2ccc(Cl)cc2)c(C#N)c(=O)[nH]1	> 100	> 100	> 100	> 100	> 100	> 100	> 100	> 100								
O=C(O)CO/N=C1/C(c2c(O)[nH]c3ccccc23)=Nc2ccccc21	> 100	> 100	> 100	> 100	69.9	> 100	> 100	> 100								
COc1cccc(C(=O)N[C@@H]2[C@H](O)[C@@H](CO)O[C@H]2n2cnc3c(N)ncnc32)c1	> 100	> 100	> 100	> 100	> 100	> 100	> 100	> 100								
CC(=O)/C(=C(/Br)I)c1ccccc1	13.3	36.3	25.1	9.35	17.9	6.83	47.8	> 31.6								
COC(=O)C1(C)OC(C)=NC1(C(=O)OC)C(=O)OC (centres undefined)	> 100	> 100	> 100	> 100	> 100	> 100	> 100	> 100								
CCOC(=O)c1c(NC(=O)c2ccc(Br)cc2)sc2c1CCCC2	> 100	> 100	> 100	> 100	> 100	> 100	> 100	> 100								
C#CC(O)Cc1ccc(OC)c2occc12 (centres undefined)	> 100	> 100	> 100	> 100	> 100	> 100	> 100	> 100								
COc1ccccc1N1C(=O)CC(=O)N(C(=O)CCCCCCCCC(=O)N2C(=O)CC(=O)N(c3ccccc3OC)C2=S)C1=S	> 100	> 100	> 100	> 100	> 100	> 100	> 100	> 100								
